Common to all, as to assay type: cell-based, human
The subject of assay [1] is H1650 cells. The assay can be described thus: Induction of EMT by growth factors and cytokines in 2D culture (immunoblot, morphology, confocal). The conditions noted are these: H1650 2D; for Induction of EMT (E-cadherin, vimentin, morphology): 7 days, HGF, EGF, OSM 100 ng/ml, TGFβ1 10 ng/ml, TNFα 25 ng/ml; for E-cadherin localization by confocal microscopy: 7 days ligand, untreated cells show membrane E-cadherin. Here is the method: (§1) The human cell line, H1650 was cultured in […] containing 10% FBS, 2 mM L-Glutamine, and 1 mM sodium pyruvate, at 37° C., 5% CO2. Growth factor and cytokine induced EMT was monitored over 7 days. Growth factor and cytokines were obtained from commercial sources and used as follows: HGF (Hepatocyte growth factor) at 100 ng/ml, EGF (Epidermal Growth Factor) at 100 ng/ml, OSM (Oncostatin M) at 100 ng/ml, TGFβ1 (Transforming growth factor, beta 1) at 10 ng/ml, and TNFα (Tumor necrosis factor alpha) at 25 ng/ml.
Cells were harvested by washing once with PBS, and lysing on ice for 10 minutes with scraping (using a Cell Lifter, Corning Inc. #3008) in ice cold RIPA buffer (Sigma R0278) containing Protease inhibitor (Sigma P8340), Phosphatase inhibitors (Sigma P2850, P5726) and 200 μM Sodium Vanadate. Supernatents were micro-centrifuged at max speed, 4° C. for 10 minutes. Protein content was quantitated using the BCA method (Pierce #23225) and samples were normalized to total protein in Laemli buffer and heated at 100° C. for 10 minutes. SDS PAGE was run using a Bis-Tris gel system (Invitrogen NuPAGE) with MOPS buffer (Invitrogen NP0001), transferred onto nitrocellulose using the iBLOT system (Invitrogen) and blocked in PBS-T (0.1% Tween 20), 5% non-fat milk or BSA in guidance with primary Ab supplier requirements. All primary antibodies were incubated overnight at 4° C. in PBS-T (0.1% Tween 20) in either 5% non-fat milk or BSA, diluted to the following working dilutions: anti E Cadherin (Santa Cruz #sc-21791) 1:500 dilution; anti Vimentin (BD Biosciences #550513) 1:2000 dilution;); 1:1000 dilution; anti β-Actin (Sigma, A5441) 1:10,000 dilution. Secondary HRP labeled antibodies used were: anti Rabbit IgG HRP (Amersham NA934) 1:5000 dilution; anti Mouse IgG HRP (Sigma A2304) 1:2000 dilution. Membranes were visualized using the Supersignal ELISA Femto Maximum Sensitivity Substrate (Pierce).
Cells were fixed in 4% paraformaldehyde (Electron Microscopy Sciences #15710)/PBS (Gibco#14190) for 10 minutes at room temperature, washed with PBS and permeabilized with 0.1% Triton X100 (Sigma P1379) in PBS for 10 minutes at room temp. Cells were blocked with 3% BSA/PBS for at least 15 minutes then incubated with primary antibody diluted in blocking buffer for a minimum of two hours at room temperature. Anti E-Cadherin was used at a 1:75 dilution and anti Vimentin (Millipore #AB5733) was used at a 1:2000 dilution. Cells were washed, incubated with fluorescently-labeled secondary antibodies for one hour, followed by a 5 minute TO-PRO3 nuclear counterstain (Invitrogen #T3605) at room temperature, washed and mounted on slides with Pro-Long Gold anti-fade reagent (Invitrogen #P36934). Secondary fluorescent antibodies used were: anti mouse 488 nm (Invitrogen #A11029) 1:600 dilution; anti chicken TRITC (Chemicon #AP194R) 1:50 dilution. Stained cells were captured on a Leica DMRXE microscope/SP2 scanner using Leica Confocal Software (LCS).
The ability of cell lines to undergo epithelial to mesenchymal transition (EMT) was investigated using different extracellular ligand drivers. A panel of NSCLC, pancreatic, and breast cancer cell lines were screened by treatment of cells for 7 days in presence of respective ligands, either singly or in combination. Initial screening determined the ability of the ligand to cause morphology change, to down-regulate the epithelial marker, E-cadherin or to up-regulate a mesenchymal marker such as vimentin. Potential EMT cell models should up-regulate a mesenchymal marker and display morphology change. More robust models would show a down-regulation of E-cadherin expression.
(In general: A western blot detects proteins with antibodies after separation by electrophoresis.)

Assay [2] relates to H1650 cells. The assay can be described thus: Doubling time of ligand-treated H1650 cells. The conditions noted are these: 7 days ligand, doubling time over following two weeks, versus untreated. Here is the method: as §1
Cells were plated and treated with ligand for 7 days. On day 7, cells were counted and re-plated on 6 cm cell culture dishes. On days 3, 5, 7, 10 and 12, cells were trypsinized and counted to determine the total number of cells in the dish, in duplicate. Doubling time was calculated using the multiple time point method on the website www.doubling-time.com.

In assay [3] the test system is H1650 cells. The assay can be described thus: qPCR of EMT gene changes in response to ligand treatment. The conditions noted are these: 7 days ligand, qPCR normalized to GAPDH and untreated control. As to the method:
as §1
Cells were plated and treated with ligand for 7 days. At the time of harvest, cells were trypsinized and snap frozen for later use. Total RNA was isolated using RNAqueous-4 PCR Kit (Ambion, AM1914). Samples were DNase treated using the Turbo DNA-Free kit (Ambion, AM1907) and reverse transcribed using Superscript III (Invitrogen, 18080-044) for qPCR analysis. Taqman primers and Locked-Nucleic Acid probes were designed using ProbeFinder software (Universal Probe library, Roche). For mRNA analysis, real time PCR was performed using the ABI 7900HT series PCR machine. Thermocycle conditions were as follows: 50° C. for 2 minutes, 95° C. for 10 minutes, 95° C. for 15 seconds, 50° C. for 10 seconds, 60° C. for 1 minute. Data was collected over 45 cycles and then normalized to GAPDH and further normalized to the untreated control sample.
On the technique in general: In qPCR the cycle at which signal appears reflects the starting amount.

The test system of assay [4] is H1650 cells. The assay can be described thus: Pharmacological inhibition of ligand-induced EMT (Western blot, morphology). The conditions noted are these: MEK inhibitor 1 1 μM, LY294002 10 μM, JAK inhibitor 1 0.25 μM. As to the method: Supernatents were micro-centrifuged at max speed, 4° C. for 10 minutes. […] SDS PAGE was run using a Bis-Tris gel system (Invitrogen NuPAGE) with MOPS buffer (Invitrogen NP0001), transferred onto nitrocellulose using the iBLOT system (Invitrogen) and blocked in PBS-T (0.1% Tween 20), 5% non-fat milk or BSA in guidance with primary Ab supplier requirements. […] Secondary HRP labeled antibodies used were: anti Rabbit IgG HRP (Amersham NA934) 1:5000 dilution; anti Mouse IgG HRP (Sigma A2304) 1:2000 dilution. Membranes were visualized using the Supersignal ELISA Femto Maximum Sensitivity Substrate (Pierce).
Cells were treated with inhibitor 30 minutes prior to ligand stimulation. Medium, inhibitor and ligand were refreshed on experimental day 3 to 4. Cells were photographed and lysed in RIPA buffer on day 7 for Western blotting.
To determine what signaling pathways are important for EMT in this model, cells were stimulated for 7 days with OSM, HGF+OSM or OSM+TGFβ in the presence of inhibitors to MEK, PI3K and JAK, since these pathways are established downstream effectors of these ligands. After 7 days, we photographed the cells to show morphology and harvested the cells to analyze markers by immunoblot (FIG. 6).

Consider five compounds from patent publication US8465912B2, “Methods for the identification of agents that inhibit mesenchymal-like tumor cells or their formation” (OSI Pharmaceuticals, LLC, priority 2009, dated 2013).

For TNFα, the “Induction of EMT (E-cadherin, vimentin, morphology)” value in the assay on H1650 cells [1] is listed as “do not stimulate EMT by themselves”.

As for “TGFβ: Transforming growth factor, beta 1, used at 10 ng/ml”, the “Change in doubling time” value in the assay with H1650 cells [2] was “no effect”. Further, in the assay on H1650 cells [3], the CDH1 gene change result was “NC (Fold changes less than 3 are reported as NC)”, the CDH2 gene change result is given as “NC (Fold changes less than 3 are reported as NC)”, the CLDN3 gene change entry is reported as “NC (Fold changes less than 3 are reported as NC)” and the ERBB3 gene change entry is “NC (Fold changes less than 3 are reported as NC)”. In the assay on H1650 cells [3], the ITGB3 gene change entry was “NC (Fold changes less than 3 are reported as NC)”, the MTA3 gene change result is recorded as “NC (Fold changes less than 3 are reported as NC)”, the OCLN gene change result was “NC (Fold changes less than 3 are reported as NC)” and the PLAUR gene change entry is given as “NC (Fold changes less than 3 are reported as NC)”. In the assay with H1650 cells [3], the SNAI1 gene change result is reported as “NC (Fold changes less than 3 are reported as NC)”, the SNAI2 gene change turned out to be 4.9 fold change, the SPARC gene change result is given as “NC (Fold changes less than 3 are reported as NC)” and the TJP3 gene change result is “NC (Fold changes less than 3 are reported as NC)”. In the assay with H1650 cells [3], the TWIST1 gene change result is recorded as “NC (Fold changes less than 3 are reported as NC)”, the VCAN gene change is given as 5.04 fold change, the VIM gene change amounted to 3.99 fold change and the ZEB1 gene change entry is given as “NC (Fold changes less than 3 are reported as NC)”. In the assay on H1650 cells [3], the ZEB2 gene change result is reported as “NC (Fold changes less than 3 are reported as NC)”. The “Induction of EMT (E-cadherin, vimentin, morphology)” value with H1650 cells [1] is “do not stimulate EMT by themselves”.

With “HGF: Hepatocyte growth factor, commercial protein ligand used at 100 ng/ml to induce EMT in H1650 cells”, the “Change in doubling time” value in the assay on H1650 cells [2] is reported as “modest decrease”. Moreover, in the assay on H1650 cells [3], the ACTN1 gene change result was “NC (Fold changes less than 3 are reported as NC)”, the CDH1 gene change entry is on record as “NC (Fold changes less than 3 are reported as NC)”, the CDH2 gene change entry is reported as “NC (Fold changes less than 3 are reported as NC)” and the CLDN3 gene change entry was “NC (Fold changes less than 3 are reported as NC)”. Moreover, in the assay on H1650 cells [3], the ERBB3 gene change entry is recorded as “NC (Fold changes less than 3 are reported as NC)”, the ITGB3 gene change result was “NC (Fold changes less than 3 are reported as NC)”, the MTA3 gene change entry is on record as “NC (Fold changes less than 3 are reported as NC)” and the OCLN gene change result is “NC (Fold changes less than 3 are reported as NC)”. Also, in the assay on H1650 cells [3], the PLAUR gene change entry is given as “NC (Fold changes less than 3 are reported as NC)”, the SNAI1 gene change entry is reported as “NC (Fold changes less than 3 are reported as NC)”, the SNAI2 gene change turned out to be 6.43 fold change and the SPARC gene change entry is recorded as “NC (Fold changes less than 3 are reported as NC)”. Besides, in the assay on H1650 cells [3], the TJP3 gene change result is recorded as “NC (Fold changes less than 3 are reported as NC)”, the TWIST1 gene change entry is listed as “NC (Fold changes less than 3 are reported as NC)”, the VCAN gene change was determined as 6.71 fold change and the VIM gene change was determined as 4.92 fold change. In the assay with H1650 cells [3], the ZEB1 gene change result is given as “NC (Fold changes less than 3 are reported as NC)” and the ZEB2 gene change result is “NC (Fold changes less than 3 are reported as NC)”. Besides, in the assay with H1650 cells [1], the “E-cadherin localization by confocal microscopy” value was “absence of E-cadherin or mislocalization of E-cadherin to the cytoplasm” and the “Induction of EMT (E-cadherin, vimentin, morphology)” value is “partial EMT”.

Turning to `CC(C)(C)c1nc2c3cc[nH]c(=O)c3c3cc(F)ccc3c2[nH]1` [JAK inhibitor 1], the “Effect on HGF+OSM-induced EMT” value in the assay on H1650 cells [4] (7 days HGF+OSM) is given as “partial”. The “Effect on OSM+TGFβ-induced EMT” value in the assay on H1650 cells [4] (7 days OSM+TGFβ) is recorded as “near complete block”. In the assay with H1650 cells [4] (7 days OSM), the “Effect on OSM-induced EMT” value is listed as “near complete block”. Besides, the “Effect on EMT in all three ligand models (OSM, HGF+OSM, OSM+TGFβ)” value with H1650 cells [4] (7 days, immunoblot and morphology) is on record as “blocked EMT to varying degrees”.

Consider “EGF: Epidermal Growth Factor, commercial protein ligand used at 100 ng/ml”, for which, in the assay with H1650 cells [1], the “E-cadherin localization by confocal microscopy” value was “absence of E-cadherin or mislocalization of E-cadherin to the cytoplasm” and the “Induction of EMT (E-cadherin, vimentin, morphology)” value is “partial EMT”.
